Reference: patent US20090203577A1 (EXELIXIS, INC., priority 2005, published 2009)

Target: T1, human farnesoid X receptor (Homo sapiens, UniProt Q96RI1)
T1 construct: CMX-farnesoid X receptor (full length human farnesoid X receptor); expressed in transfected cells; host or cells: CV-1 African Green Monkey Kidney cells
T1 sequence (Q96RI1 1-472 isoform Q96RI1-2): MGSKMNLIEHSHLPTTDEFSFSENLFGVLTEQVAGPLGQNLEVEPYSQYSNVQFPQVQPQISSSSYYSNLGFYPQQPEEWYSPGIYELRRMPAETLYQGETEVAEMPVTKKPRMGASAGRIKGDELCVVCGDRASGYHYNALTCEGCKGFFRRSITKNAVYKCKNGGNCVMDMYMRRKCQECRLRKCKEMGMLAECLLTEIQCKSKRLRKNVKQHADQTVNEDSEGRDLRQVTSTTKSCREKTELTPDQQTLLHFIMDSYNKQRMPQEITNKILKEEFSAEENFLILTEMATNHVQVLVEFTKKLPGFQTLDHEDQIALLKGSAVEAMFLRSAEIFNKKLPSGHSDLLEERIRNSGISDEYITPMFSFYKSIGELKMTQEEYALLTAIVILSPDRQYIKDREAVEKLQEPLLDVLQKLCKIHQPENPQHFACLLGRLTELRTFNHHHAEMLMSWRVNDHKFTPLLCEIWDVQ
T1 sequence (P19793 1-462 partner): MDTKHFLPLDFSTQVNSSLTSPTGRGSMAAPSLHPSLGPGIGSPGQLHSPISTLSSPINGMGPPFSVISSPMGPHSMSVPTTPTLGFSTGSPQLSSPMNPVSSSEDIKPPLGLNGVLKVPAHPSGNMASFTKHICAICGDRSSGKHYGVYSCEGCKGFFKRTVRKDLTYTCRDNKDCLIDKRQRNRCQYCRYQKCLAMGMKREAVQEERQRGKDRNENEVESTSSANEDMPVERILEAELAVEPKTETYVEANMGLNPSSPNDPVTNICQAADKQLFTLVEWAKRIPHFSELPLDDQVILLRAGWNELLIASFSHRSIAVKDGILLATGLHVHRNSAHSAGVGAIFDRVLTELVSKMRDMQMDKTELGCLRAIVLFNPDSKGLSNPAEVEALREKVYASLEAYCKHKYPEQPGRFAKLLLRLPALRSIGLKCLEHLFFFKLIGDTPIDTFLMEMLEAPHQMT
Assay: FXR in vitro assays (farnesoid X receptor/ECREx7 co-transfection assay, TR-FRET assay), Table I
Assay type: cell-based
Details: for EC50: agonist activity, one or more of the in vitro assays, read-out: EC50; for Emax: read-out: % Efficacy
How it was run: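 CV-1 monkey kidney cells transfected for an FXR/ECREx7 luciferase co-transfection reporter; luciferase read 18-20 h later in lysates. 8-point dose-response at ½-log spacing, 4 wells per point; EC50/IC50 from four-parameter Hill fit, averaged over at least 3 independent experiments.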

Row | Structure (SMILES) | EC50 [nM] | Emax [%]
1 | CC(C)OC(=O)C1=CN(C(=O)c2cccc(CN3CCN(C(=O)C(C)C)CC3)c2)CC(C)(C)c2c1[nH]c1ccccc21 [Example 174, 1-methylethyl 1,1-dimethyl-3-[(3-{[4-(2-methylpropanoyl)piperazin-1-yl]methyl}phenyl)carbonyl]-1,2,3,6-tetrahydroazepino[4,5-b]indole-5-carboxylate] | 100 to 1000 | > 100
2 | CC(C)OC(=O)C1=CN(C(=O)c2cccc(CN3CCN(C(=O)c4ccccc4)CC3)c2)CC(C)(C)c2c1[nH]c1ccccc21 [Example 175, 1-methylethyl 1,1-dimethyl-3-[(3-{[4-(phenylcarbonyl)piperazin-1-yl]methyl}phenyl)carbonyl]-1,2,3,6-tetrahydroazepino[4,5-b]indole-5-carboxylate] | 100 to 1000 | > 100
3 | CC(C)OC(=O)C1=CN(C(=O)c2cccc(CN3CCCCCCC3)c2)CC(C)(C)c2c1[nH]c1ccccc21 [Example 176, 1-methylethyl 3-{[3-(azocan-1-ylmethyl)phenyl]carbonyl}-1,1-dimethyl-1,2,3,6-tetrahydroazepino[4,5-b]indole-5-carboxylate] | 100 to 1000 | > 100
4 | CC(C)OC(=O)C1=CN(C(=O)c2cccc(CN3CCNCC3)c2)CC(C)(C)c2c1[nH]c1ccccc21 [Example 178, 1-methylethyl 1,1-dimethyl-3-{[3-(piperazin-1-ylmethyl)phenyl]carbonyl}-1,2,3,6-tetrahydroazepino[4,5-b]indole-5-carboxylate] | > 10000 | 
5 | CC(C)OC(=O)C1=CN(C(=O)c2cc(F)c(F)c(OCCN3CCOCC3)c2)CC(C)(C)c2c1[nH]c1ccccc21 [Example 179, 1-methylethyl 3-({3,4-difluoro-5-[(2-morpholin-4-ylethyl)oxy]phenyl}carbonyl)-1,1-dimethyl-1,2,3,6-tetrahydroazepino[4,5-b]indole-5-carboxylate] | 10 to 100 | > 100
6 | CC(C)OC(=O)C1=CN(C(=O)c2cc(F)c(F)c(OCCN3CCCCC3)c2)CC(C)(C)c2c1[nH]c1ccccc21 [Example 180, 1-methylethyl 3-({3,4-difluoro-5-[(2-piperidin-1-ylethyl)oxy]phenyl}carbonyl)-1,1-dimethyl-1,2,3,6-tetrahydroazepino[4,5-b]indole-5-carboxylate] | 10 to 100 | > 100
7 | CC(C)OC(=O)C1=CN(C(=O)c2cccc(CN3CCN(C(=O)Nc4ccccc4)CC3)c2)CC(C)(C)c2c1[nH]c1ccccc21 [Example 184] | 10 to 100 | > 100
8 | CCN(CC)CCCOc1cccc(C(=O)N2C=C(C(=O)OC(C)C)c3[nH]c4ccccc4c3C(C)(C)C2)c1 [Example 188, 1-methylethyl 3-[(3-{[3-(diethylamino)propyl]oxy}phenyl)carbonyl]-1,1-dimethyl-1,2,3,6-tetrahydroazepino[4,5-b]indole-5-carboxylate] | 1000 to 10000 | > 100
9 | CC(COC(=O)c1ccc(F)c(F)c1)OC(=O)C1=CN(C(=O)c2ccc(F)c(F)c2)CC(C)(C)c2c1[nH]c1ccccc21 (stereo not shown) [Example 194, 2-{[(3,4-difluorophenyl)carbonyl]oxy}-1-methylethyl 3-[(3,4-difluorophenyl)carbonyl]-1,1-dimethyl-1,2,3,6-tetrahydroazepino[4,5-b]indole-5-carboxylate] | 10 to 100 | > 100
10 | CC1(C)CN(C(=O)c2ccc(F)c(F)c2)C=C(C(=O)OCCOCc2ccccc2)c2[nH]c3ccccc3c21 [Example 195, 2-[(phenylmethyl)oxy]ethyl 3-[(3,4-difluorophenyl)carbonyl]-1,1-dimethyl-1,2,3,6-tetrahydroazepino[4,5-b]indole-5-carboxylate] | 100 to 1000 | > 100
